SMILES strings stand for the structures.

The source of these data is patent US20090111893A1, “METHOD OF LOWERING BLOOD GLUCOSE AND METHOD OF PREVENTING OR TREATING BLOOD GLUCOSE AND METHOD OF PREVENTING OR TREATING DIABETES AND OBESITY” (National University Corporation Gunma University, priority 2007, published 2009).

Data set [1] has as its system Mouse 3T3-L1 fibroblasts. Put plainly: Glucose uptake of confluent 3T3-L1 fibroblasts (glucose concentration in medium). The conditions noted are these: for glucose uptake-promoting activity: 3T3-L1 cells, same condition as Example 1, FIG. 3, n=3. In kind it is cell-based. As to the method:
(1) Mouse 3T3-L1 fibroblasts were cultured in 1 ml of a suitable medium (contained in a 12-well plastic dish) for several days until the cells reached confluence. Then, the cells were cultured for 10-12 hours in the nutrition medium (None), the nutrition medium to which only 0.2% ethanol, a solvent of DIF-1, was added (EtOH), and the nutrition medium to which 10 or 20 µM DIF-1 dissolved in ethanol was added, respectively, and then, glucose concentration in each of the media was determined, based on which glucose uptake rate of the cells was calculated and the ratio with respect to the control was plotted (FIG. 1). […] The data of FIG. 1 are shown by mean value and standard deviation (Bars) of four independent experiments (n=4). (2) Then, mouse 3T3L1 fibroblasts were cultured in 1 ml of a suitable medium (contained in a 12-well plastic dish) until the cells reached confluence. After changing the medium to a new medium (this time point corresponds to 0 hour in the graph), DIF-1 was added, and glucose concentration in the medium was measured at the time point of 20 hours (FIG. 2A), based on which glucose consumption rate was calculated (FIG. 2B). Then, the media were changed to new media containing no DIF-1 for all the samples, and after culture was continued for another 20 hours, glucose concentration was measured (FIG. 2A). The number of cells at this time point was also determined (FIG. 2C). The data of the graph are mean values and standard deviations (Bars) (n=3) of the results of triplicate samples evaluated under the same conditions.
Glucose uptake-promoting activity of DIF-1 and its artificial derivatives (2-MIDIF1, DMPH, THPH) were compared in the same condition as Example 1 (FIG. 3). The data of the graph are mean values and standard deviations (Bars) (n=3) of three independent experiments.
Glucose uptake-promoting activity of DIF-1 derivative compounds in 3T3-L1 cells was evaluated in the same manner as described above. The data of the graph are mean values and standard deviations (Bars) (n=3) of triplicate samples measured under the same conditions.

The subject of data set [2] is KKAy diabetic model mice. Format: in vivo. The note with it: for blood glucose level as compared with the control group: KKAy mice, intraperitoneal 25, 50 and 100 mg/kg, 4 and 8 hours after administration, n=2, FIG. 6; for death of mice: mouse, in vivo. The protocol: The in vivo effects of DIF-1 and DIF-1 (3M) were also evaluated with the KKAy diabetic model mice. The drugs were administered intraperitoneally to KKAy mice (male, 13 weeks: Clea Japan) at the concentrations of 25, 50, and 100 mg/kg, respectively, and after free feeding (Time 0), blood glucose level was monitored at the indicated time points (FIG. 6). Each of the experiments used two mice, and the mean values of the relative blood glucose concentrations and ½ variance (Bars)(n=2) were plotted.

For data set [3], the system named is RGM-1 cells (isolated from rat gastric mucosa). Put plainly: Glucose uptake of RGM-1 cells (glucose concentration in medium). In kind it is cell-based. The protocol:
Similar experiments were performed with RGM-1 cells (isolated from rat gastric mucosa) to evaluate the change in glucose concentration in the medium containing DIF-1 or other compounds (FIG. 4). The data of the graph are mean values and standard deviations (Bars) (n=3) of triplicate samples measured under the same conditions.

Data set [4] concerns 3T3-L1 adipocytes. Kind of data set: 2-deoxy glucose uptake in 3T3-L1 adipocytes, with or without insulin. Format: cell-based, mouse. The protocol:
Confluent 3T3-L1 fibroblasts (cultured in a 12-well plate) were treated with IBMX (3-isobutyl-1-methylxanhine), dexamethasone, and insulin to induce differentiation into 3T3-L1 adipocytes (Student A K, Hsu R Y & Lane M D (1980) J. Biol. Chem. 255, 4745-4750.). The 3T3-L1 adipocytes were cultured in the presence of DIF-1 whose concentration is shown in FIG. 5 for four hours, and 2-deoxy glucose uptake was measured. At the same time, some of the adipocytes were stimulated with 100 nM insulin during cultivation (after 3.5 hours) in the presence of DIF-1, and cultured for another 30 minutes, and glucose uptake of the cells was measured. Each experiment was performed in triplicates, and the mean values thereof were calculated in each experiment. Such experiments were performed twice and the mean values and ½ variance (Bars) of the two experiments (n=2) were plotted in FIG. 5.

The subject of data set [5] is ICR mice. Put plainly: Blood glucose level in ICR mice after intraperitoneal glucose. Format: in vivo, mouse. The conditions noted are these: glucose 0.3 g/kg i.p. together with DIF-1, 50 mg/kg group and 100 mg/kg group, FIG. 7. The protocol:
Glucose (0.3 g/kg) was administered intraperitoneally to ICR mice (male, 6-7 weeks) together with DIF-1 (solvent: 5% DMSO, 5% CREMOPHOR, and 90% distilled water), and blood glucose level was determined from just after the administration. Mice to which only glucose was administered was used as a control group, and mice to which neither glucose nor DIF-1 was administered was used as a normal group.

Consider `C/C=C(/C)C(=O)O[C@H]1C(C)=C2[C@H]([C@@H]1OC(=O)CCCCCCC)[C@@](C)(OC(C)=O)C[C@H](OC(=O)CCC)[C@@]1(O)[C@H]2OC(=O)[C@@]1(C)O` [Tg, Thapsigargin, reference compound], for which the glucose uptake-promoting activity entry in data set [1] is reported as “did not promote glucose uptake”.

Regarding `COc1c(Cl)c(O)c(C(=O)CC(C)(C)C)c(O)c1Cl` [DIF-1 (3M)], in data set [2], the “blood glucose level as compared with the control group” value is on record as “low blood glucose level” and the death of mice entry is reported as “No mice died”.

In the case of `CNc1ccc2oc(C[C@H]3O[C@@]4(CC[C@H]3C)O[C@H]([C@H](C)C(=O)c3ccc[nH]3)[C@H](C)C[C@H]4C)nc2c1C(=O)O` [A23187, reference compound], the glucose uptake-promoting activity result in data set [1] is “did not promote glucose uptake”.

Consider `CCCCCC(=O)c1c(O)c(Cl)c(OC)c(Cl)c1O` [DIF-1], for which the “cell morphology and cell damage by microscopic observation” value in data set [1] (3T3-L1 fibroblasts in the presence of DIF-1) is on record as “cell damage was not observed”. Also, the “glucose uptake ratio of the cell (ratio with respect to the control)” value in data set [1] (3T3-L1 fibroblasts, 10-12 hours culture, 10 or 20 µM DIF-1, FIG. 1, n=4) is recorded as “increased dependently on DIF-1 concentration”. Further, in data set [1] (3T3-L1 fibroblasts, 20-hour culture with DIF-1, FIG. 2A/2B, n=3), the “glucose uptake of cells (glucose consumption rate)” value was “promotes glucose uptake of cells in a concentration-dependent manner”. Besides, the number of cells entry in data set [1] (3T3-L1 fibroblasts, after 40-hour culture, FIG. 2C) is given as “without influencing the number of cells”. Further, in data set [1] (3T3-L1 fibroblasts, medium changed to DIF-1-free medium, another 20 hours, FIG. 2A), the “reversibility of the action on glucose uptake” value was “reversible”. For the same molecule, the glucose uptake result in data set [3] (6- and 12-hour culture, FIG. 4) is given as “promotes glucose uptake in a concentration-dependent manner”. Also, the cell number entry in data set [3] (after 12-hour culture, FIG. 4C) is on record as “without influencing cell number”. In data set [4] (DIF-1 singly, four hours, FIG. 5, n=2), the 2-deoxy glucose uptake entry is “promoted glucose uptake in a concentration-dependent manner”. Besides, the “2-deoxy glucose uptake with insulin” value in data set [4] (relatively low concentration of DIF-1 plus 100 nM insulin for the last 30 minutes, FIG. 5) is “additive effect with insulin”. In addition, in data set [2], the “blood glucose level as compared with the control group” value is listed as “low blood glucose level” and the death of mice result is recorded as “No mice died”. Also, the “blood glucose level as compared with the control group” value in data set [5] is recorded as “significantly lowered blood glucose level”.

As to `COCc1nc2c([nH]1)c(=O)n(C)c(=O)n2CC(C)C` [8-MIBMX, reference compound], in data set [1], the glucose uptake-promoting activity result is listed as “did not promote glucose uptake”.
